{"source": "ChEMBL document CHEMBL5104139", "about": "“A critical update on the strategies towards small molecule inhibitors targeting Serine/arginine-rich (SR) proteins and Serine/arginine-rich proteins related kinases in alternative splicing” (Bioorg Med Chem, 2022)", "key": {"[1]": {"biological_target": "Dual specificity protein kinase CLK2 (Homo sapiens, UniProt P49760)", "sequence (P49760 whole entry)": "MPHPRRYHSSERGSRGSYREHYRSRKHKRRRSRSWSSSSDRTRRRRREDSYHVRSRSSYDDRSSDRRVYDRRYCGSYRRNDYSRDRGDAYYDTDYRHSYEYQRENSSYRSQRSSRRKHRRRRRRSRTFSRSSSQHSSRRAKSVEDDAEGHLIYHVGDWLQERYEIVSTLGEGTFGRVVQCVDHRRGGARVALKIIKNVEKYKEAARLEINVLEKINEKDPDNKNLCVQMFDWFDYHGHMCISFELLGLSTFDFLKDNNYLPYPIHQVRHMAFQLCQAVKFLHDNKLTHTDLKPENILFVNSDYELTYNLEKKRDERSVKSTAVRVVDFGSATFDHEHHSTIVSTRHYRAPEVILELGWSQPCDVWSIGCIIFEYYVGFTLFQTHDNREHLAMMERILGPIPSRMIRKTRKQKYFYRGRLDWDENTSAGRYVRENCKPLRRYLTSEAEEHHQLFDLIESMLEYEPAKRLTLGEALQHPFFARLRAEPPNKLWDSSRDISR"}, "[2]": {"biological_target": "T1, Serine/arginine-rich splicing factor 6 (Homo sapiens, UniProt Q13247)", "T1 sequence (Q13247 whole entry)": "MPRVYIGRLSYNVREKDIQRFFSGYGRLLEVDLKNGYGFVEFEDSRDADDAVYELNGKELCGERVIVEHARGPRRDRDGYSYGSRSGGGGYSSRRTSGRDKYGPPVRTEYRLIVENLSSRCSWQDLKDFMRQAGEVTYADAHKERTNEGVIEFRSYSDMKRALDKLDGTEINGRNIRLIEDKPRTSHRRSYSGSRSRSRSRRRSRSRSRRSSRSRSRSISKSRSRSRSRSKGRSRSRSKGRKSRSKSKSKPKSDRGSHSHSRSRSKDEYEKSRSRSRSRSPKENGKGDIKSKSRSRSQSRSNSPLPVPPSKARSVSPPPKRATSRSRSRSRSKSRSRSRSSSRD", "experiment": "Inhibition of SRSF6 (unknown origin)"}, "[3]": {"biological_target": "Cyclin-dependent kinase 5 (Homo sapiens, UniProt Q00535)", "sequence (Q00535 whole entry)": "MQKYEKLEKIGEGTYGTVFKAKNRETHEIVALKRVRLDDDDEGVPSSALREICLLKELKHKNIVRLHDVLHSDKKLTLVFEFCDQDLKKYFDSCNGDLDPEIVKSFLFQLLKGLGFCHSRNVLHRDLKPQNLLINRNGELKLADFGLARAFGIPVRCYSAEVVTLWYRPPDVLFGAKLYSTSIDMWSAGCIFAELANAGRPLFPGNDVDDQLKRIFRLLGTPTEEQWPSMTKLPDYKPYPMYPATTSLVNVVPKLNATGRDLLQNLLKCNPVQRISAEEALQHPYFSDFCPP", "experiment": "Inhibition of CDK5 (unknown origin)"}, "[4]": {"biological_target": "Glycogen synthase kinase-3 (Homo sapiens, UniProt P49840+P49841)", "experiment": "Inhibition of GSK3 (unknown origin)", "type": "protein assay"}, "[5]": {"biological_target": "T2, Dual specificity tyrosine-phosphorylation-regulated kinase 1A (Homo sapiens, UniProt Q13627)"}, "[6]": {"biological_target": "SRSF protein kinase 2 (Homo sapiens, UniProt P78362)", "sequence (P78362 whole entry)": "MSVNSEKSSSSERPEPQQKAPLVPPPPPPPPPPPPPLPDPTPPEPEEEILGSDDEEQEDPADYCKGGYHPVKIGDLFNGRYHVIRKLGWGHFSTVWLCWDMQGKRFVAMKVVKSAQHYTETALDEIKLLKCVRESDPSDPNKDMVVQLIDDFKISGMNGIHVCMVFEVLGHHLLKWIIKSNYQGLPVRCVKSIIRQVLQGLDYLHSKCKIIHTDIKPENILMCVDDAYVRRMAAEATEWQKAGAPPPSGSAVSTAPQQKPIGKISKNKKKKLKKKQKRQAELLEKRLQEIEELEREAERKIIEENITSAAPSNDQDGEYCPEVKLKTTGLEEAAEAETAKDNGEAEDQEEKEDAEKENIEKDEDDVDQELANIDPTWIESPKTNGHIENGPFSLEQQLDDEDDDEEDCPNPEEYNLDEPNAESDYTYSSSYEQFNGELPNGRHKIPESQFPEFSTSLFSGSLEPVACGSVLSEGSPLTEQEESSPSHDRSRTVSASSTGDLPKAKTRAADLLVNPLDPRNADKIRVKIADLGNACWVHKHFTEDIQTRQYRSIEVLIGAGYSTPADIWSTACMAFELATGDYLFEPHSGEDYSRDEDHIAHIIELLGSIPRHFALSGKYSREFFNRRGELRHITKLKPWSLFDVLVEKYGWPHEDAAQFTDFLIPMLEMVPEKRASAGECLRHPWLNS"}, "[7]": {"system": "HL-60", "experiment": "Cytotoxicity against HL-60 cells", "type": "functional, cell-based", "settings": "Homo sapiens"}, "[8]": {"system": "K562", "experiment": "Cytotoxicity against human K562 cells", "type": "functional, cell-based"}, "[9]": {"biological_target": "T2, Dual specificity tyrosine-phosphorylation-regulated kinase 1A", "experiment": "Inhibition of DYRK1A (unknown origin) at 1 uM relative to control"}, "[10]": {"biological_target": "SRSF protein kinase 1 (Homo sapiens, UniProt Q96SB4)", "sequence (Q96SB4 whole entry)": "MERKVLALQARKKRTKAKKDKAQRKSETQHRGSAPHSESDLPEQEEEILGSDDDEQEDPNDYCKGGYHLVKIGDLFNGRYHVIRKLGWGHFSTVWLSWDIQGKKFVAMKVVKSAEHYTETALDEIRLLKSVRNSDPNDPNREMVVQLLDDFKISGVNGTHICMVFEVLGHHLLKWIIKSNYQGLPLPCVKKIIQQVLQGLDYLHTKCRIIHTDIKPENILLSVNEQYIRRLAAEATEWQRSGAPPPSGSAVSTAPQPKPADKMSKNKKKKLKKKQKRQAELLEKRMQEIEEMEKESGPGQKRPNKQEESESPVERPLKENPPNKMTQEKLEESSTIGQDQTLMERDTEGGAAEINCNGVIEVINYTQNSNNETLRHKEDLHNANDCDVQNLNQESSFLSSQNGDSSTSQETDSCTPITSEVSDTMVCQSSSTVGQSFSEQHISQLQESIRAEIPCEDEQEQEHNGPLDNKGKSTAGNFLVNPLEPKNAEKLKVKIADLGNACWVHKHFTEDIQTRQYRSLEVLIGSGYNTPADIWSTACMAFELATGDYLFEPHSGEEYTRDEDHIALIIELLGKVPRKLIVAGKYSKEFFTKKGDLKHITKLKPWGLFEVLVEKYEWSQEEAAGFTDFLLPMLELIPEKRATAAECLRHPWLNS"}}}
{"smiles": "O=C(Oc1cc(O)c2c(c1)OC(c1cc(O)c(O)c(O)c1)CC2)c1cc(O)c(O)c(O)c1", "note": "(stereo not drawn)", "values": [{"measurement": "IC50", "setting": "[1]", "result": 2700, "unit": "nM"}]}
{"smiles": "CCc1cc2c(cc1CC)CC(NC[C@H](O)c1ccc(O)c3[nH]c(=O)ccc13)C2", "note": "[INDACATEROL]", "values": [{"measurement": "IC50", "setting": "[2]", "result": 19000, "unit": "nM"}]}
{"smiles": "C.O=c1oc2cc(O)ccc2c2c1[nH]c1ccccc12", "values": [{"measurement": "IC50", "setting": "[3]", "result": 2700, "unit": "nM"}, {"measurement": "IC50", "setting": "[4]", "result": 380, "unit": "nM"}, {"measurement": "IC50", "setting": "[5]", "result": 74, "unit": "nM"}]}
{"smiles": "COc1cc(/C=C2/C(=N)N3N=C(C(F)(F)F)SC3=NC2=O)ccc1O", "values": [{"measurement": "IC50", "setting": "[6]", "result": 203, "unit": "nM"}, {"measurement": "IC50", "setting": "[7]", "result": 44700, "unit": "nM"}, {"measurement": "IC50", "setting": "[8]", "result": 44700, "unit": "nM"}]}
{"smiles": "c1cc(-c2ccc3[nH]ncc3c2)ccn1", "values": [{"measurement": "inhibition", "setting": "[9]", "result": 84, "unit": "%"}]}
{"smiles": "O=C(Nc1cc(C(F)(F)F)ccc1N1CCCCC1)c1ccncc1", "values": [{"measurement": "IC50", "setting": "[10]", "result": 890, "unit": "nM"}]}
{"smiles": "O=c1oc2cc(O)ccc2c2c1[nH]c1ccc(O)cc12", "values": [{"measurement": "IC50", "setting": "[3]", "result": 720, "unit": "nM"}, {"measurement": "IC50", "setting": "[4]", "result": 310, "unit": "nM"}, {"measurement": "IC50", "setting": "[5]", "result": 67, "unit": "nM"}]}
